For the experiment, the system named is γ-secretase. The experiment is described as follows: Cellular γ-secretase assay (inhibition of Aβ42 secretion, AlphaLisa). The note with it: Human neuroglioma H4 cells overexpressing human APP695 Swedish double mutation; 24 hr compound incubation; secreted Aβ42 in supernatant. It counts as cell-based. The method, then: Cellular γ-Secretase Assay
Human neuroglioma H4 cells overexpressing human APP695 with the Swedish double mutation (K595N/M596L) were plated at 30,000 cells/well/100 μl in 96-well plates in IMDM media containing 10% FCS, 0.2 mg/l Hygromycin B and incubated at 37° C., 5% CO2.
3-4 hr post plating, compounds are a diluted in media and 50 μl is added as 1.5-fold concentrate to achieve the final concentration. Compound incubation is performed for 24 hr. Final doses typically range from 4 μM down to 0.0013 μM in half-log steps resulting in a eight point dose response curve.
Appropriate controls using vehicle only and reference compound were applied to this assay. The final concentration of Me2SO was 0.4%.
After incubation at 37° C., 5% CO2, the supernatant was subjected to quantification of secreted Aβ42 by the means of an AlphaLisa assay kit (Human Amyloid beta 1-42 Kit: Cat # AL203C, Perkin Elmer). 20 μl of the cell culture supernatant was transferred to an assay plate. Then 10 μl of a mixture of the AlphaLisa coupled capture antibody and the biotinylated detection antibody was added and incubated for 3 hours at room temperature while softly shaking the assay plate. After a further addition of 20 μl of the Donor beads the assay plate was incubated for 30 min at room temperature and constant shaking without exposure to direct light.
The assay plate was then read on a Paradigm AlphaLisa Reader using the build-in program with excitation at 680 nm and emission at […].
The measured signals were then used to calculate IC50 values for inhibition of Aβ42 secretion by nonlinear regression fit analysis using XLfit 5.3 software (IDBS).

The structures appear in SMILES notation.

One may read the EC50 as the concentration that produces a half-maximal response. Read a high EC50 as weaker potency.

Compound `Cc1cc(N2C[C@H]3CC[C@@H](C2)[C@@H]3Nc2nc3n(n2)CCCCN3c2ccc(F)c(F)c2)ncn1` [Example 23, 4-(3,4-difluorophenyl)-N-[(1R,5S,8S)-3-(6-methylpyrimidin-4-yl)-3-azabicyclo[3.2.1]octan-8-yl]-5,6,7,8-tetrahydro-[1,2,4]triazolo[1,5-a][1,3]diazepin-2-amine] displayed an EC50 of 23.3 nM.
Then `COc1cc(N2C[C@H]3CC[C@@H](C2)[C@@H]3Nc2nc3n(n2)CCCCN3c2ccc(F)c(F)c2)ncn1` [Example 24, 4-(3,4-difluorophenyl)-N-[(1R,5S,8S)-3-(6-methoxypyrimidin-4-yl)-3-azabicyclo[3.2.1]octan-8-yl]-5,6,7,8-tetrahydro-[1,2,4]triazolo[1,5-a][1,3]diazepin-2-amine], with 80.4 nM; and `Fc1ccc(N2CCCCn3nc(N[C@@H]4[C@@H]5CC[C@H]4CN(c4cnnc(Cl)c4)C5)nc32)cc1F` [Example 25, N-[(1R,5S,8S)-3-(6-chloropyridazin-4-yl)-3-azabicyclo[3.2.1]octan-8-yl]-4-(3,4-difluorophenyl)-5,6,7,8-tetrahydro-[1,2,4]triazolo[1,5-a][1,3]diazepin-2-amine], with 23.4 nM.

(Values after patent US10899766B2, “Bridged piperidine derivatives” (Hoffmann-La Roche Inc., priority 2016, dated 2021).)
